The values that follow come from patent publication US11040976B2, “Substrate selective inhibitors of insulin-degrading enzyme (IDE) and uses thereof” (President and Fellows of Harvard College, priority 2015, dated 2021).

Like-named read-outs stand apart in the source and are kept apart here. A value given as a limit tells only on which side of the number the result lay.

In this assay the target is T1, recombinant human IDE42-1019 (Homo sapiens, UniProt P14735).
T1 construct: recombinant human IDE42-1019 (R&D Systems); purchased R&D Systems
T1 sequence (P14735 42-1019): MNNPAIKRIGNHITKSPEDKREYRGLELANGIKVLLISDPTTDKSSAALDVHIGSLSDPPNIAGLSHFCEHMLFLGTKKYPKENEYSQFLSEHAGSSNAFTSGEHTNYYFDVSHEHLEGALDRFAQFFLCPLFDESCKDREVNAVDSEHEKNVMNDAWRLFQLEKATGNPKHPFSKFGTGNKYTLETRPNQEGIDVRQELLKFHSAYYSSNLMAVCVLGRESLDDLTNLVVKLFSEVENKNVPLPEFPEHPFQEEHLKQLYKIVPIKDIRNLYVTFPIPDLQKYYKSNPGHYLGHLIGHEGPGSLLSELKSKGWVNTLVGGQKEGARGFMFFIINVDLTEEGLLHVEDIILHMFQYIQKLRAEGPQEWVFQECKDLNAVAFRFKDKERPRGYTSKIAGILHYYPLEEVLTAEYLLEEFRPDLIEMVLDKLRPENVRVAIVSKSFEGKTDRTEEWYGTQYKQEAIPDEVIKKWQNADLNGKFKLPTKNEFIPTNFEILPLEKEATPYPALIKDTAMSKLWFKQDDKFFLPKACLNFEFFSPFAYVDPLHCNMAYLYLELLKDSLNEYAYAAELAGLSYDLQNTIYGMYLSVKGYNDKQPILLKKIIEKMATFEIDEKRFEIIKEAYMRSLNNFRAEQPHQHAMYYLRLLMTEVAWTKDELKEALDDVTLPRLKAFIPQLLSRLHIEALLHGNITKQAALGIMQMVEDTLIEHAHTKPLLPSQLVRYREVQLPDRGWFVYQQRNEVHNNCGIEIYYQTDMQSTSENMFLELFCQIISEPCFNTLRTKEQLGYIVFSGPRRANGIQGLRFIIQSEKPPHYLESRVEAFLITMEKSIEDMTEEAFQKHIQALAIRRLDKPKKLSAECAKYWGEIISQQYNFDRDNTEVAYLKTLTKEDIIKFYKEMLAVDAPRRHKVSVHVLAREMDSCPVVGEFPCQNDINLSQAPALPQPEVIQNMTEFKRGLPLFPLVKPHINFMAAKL
The experiment in a line: Protease assay with fluorogenic peptide substrate Mca-[…](Dnp)-OH. The class given is biochemical. The following applies: for Emax: plateau at high inhibitor concentration, read-out: Imax (%) Proteolysis (inhibition maximum). On the procedure:
The proteases IDE42-1019, recombinant human IDE42-1019 (R&D Systems), neprilysin (R&D), and angiotensin-converting enzyme (R&D) were assayed using the fluorophore/quencher-tagged peptide substrate Mca-[…](Dnp)-OH (SEQ ID NO: 24) (R&D) according to the manufacturer's instructions and using the recommended buffers (fluorophore Mca=(7-methoxycourmarin-4-yl)acetyl and quencher Dnp=2,4-dinitrophenyl). For IDE the recommended buffer is 50 mM Tris pH 7.5, 1 M NaCl. The enzyme mixtures (48 μL) were transferred to a 96-well plate and combined with 2 μL of inhibitor in DMSO solutions, in 3-fold dilution series. The mixtures were allowed to equilibrate for 10 minutes and the enzymatic reaction was started by addition of substrate peptide in assay buffer (50 μL), mixed, and monitored on a fluorescence plate reader (excitation at 320 nm, emission at 405 nm). Similarly, thimet oligopeptidase (R&D) and neurolysin (R&D) were assayed using substrate Mca-PLGPK(Dnp)-OH (SEQ ID NO: 25) (R&D) according to the manufacturer's instructions and using the recommended buffers. Matrix metalloproteinase-1 (R&D) was activated and assayed according to the manufacturer's instructions with substrate Mca-KPLGL-Dpa-AR-NH2 (SEQ ID NO: 20) (R&D) (quencher DPA=N-3-(2,4,dinitrophenyl)-L-2,3-diaminopropionyl). All assay data points were obtained in duplicate.

Setting [1] is: fluorogenic peptide Mca-RPPGFSAFK(Dnp)-OH, apparent IC50 for compounds with submaximal inhibition, read-out: IC50 (μM) Proteolysis.
Where [2] appears, read: fluorogenic peptide Mca-RPPGFSAFK(Dnp)-OH.

With `Cc1ccccc1-c1ccc([C@@H]2[C@H](CO)N3C(=O)CN(C(=O)NC4CCCC4)C[C@@H]23)cc1` [compound 1576], under setting [1], the IC50 came to 2.5 µM. The Emax under setting [2] is 60%.

Take `COc1ccc(-c2ccc([C@@H]3[C@@H](CO)N4CCCCN(S(=O)(=O)c5ccccc5C)C[C@@H]34)cc2)c(C)c1` [K17]: the half-inhibitory concentration (IC50) under setting [1] came to 0.9 µM.

As to `Cc1cccc(-c2ccc([C@H]3C4CN(S(=O)(=O)c5cnc6n5CCCCC6)C/C=C\CN4[C@@H]3CO)cc2)c1C` (stereo partly shown) [JP-S17], the IC50 under setting [1] worked out at 0.09 µM.

As to `Cc1cccc(-c2ccc(C3CCN(C(=O)c4ccc5nccnc5c4)CC3)cc2)c1C` [J17], under setting [1], the IC50 was 0.2 µM.

As for `COc1cccc(-c2ccc([C@@H]3[C@@H](CO)N4CCCCN(CC5CCOCC5)C[C@@H]34)cc2)c1` [compound 644], under setting [1], the IC50 is more than 100 µM.

As for `Cc1cccc(-c2ccc(C3CCN(Cc4ccc(OCc5ccccc5)cc4)CC3)cc2)c1C` [A34], the IC50 under setting [1] is more than 50 µM.

As to `CCn1ncc(S(=O)(=O)N2C/C=C\CN3C(C2)[C@H](c2ccc(-c4cccc(C)c4C)cc2)[C@H]3CO)c1C` (stereo partly shown) [JP-S19], under setting [1], the IC50 came out at 0.09 µM.

On to `Cc1c(F)ccc(-c2ccc([C@@H]3[C@@H](CO)N4CCCCN(S(=O)(=O)c5nccn5C)C[C@@H]34)cc2)c1C` [JP-43], for which the IC50 under setting [1] was 0.004 µM.

`CCC(=O)N1[C@H](CO)[C@H](c2ccc(-c3ccccc3OC)cc2)[C@H]1CNC(C)=O` [D4]: the IC50 under setting [1] is more than 20 µM.

Take `Cc1ccccc1S(=O)(=O)N1CCCCN2C(C1)[C@H](c1ccc(-c3ccc4c(c3)OCO4)cc1)[C@H]2CO` (stereo partly shown) [K5]: the Emax under setting [2] stood at 100%.

`Cc1ccccc1S(=O)(=O)N1CCCCN2[C@H](CO)[C@@H](c3ccc(-c4cccc(C(F)(F)F)c4)cc3)[C@@H]2C1` [B5]: the IC50 under setting [1] turned out to be 7.5 µM.

For `Cc1ccccc1S(=O)(=O)N1CCCCN2[C@H](CO)[C@@H](c3ccc(-c4cccc(O)c4)cc3)[C@@H]2C1` [B7], under setting [1], the IC50 came out at 7.5 µM. Also, the Emax under setting [2] is 100%.

For the compound `Cc1ccccc1S(=O)(=O)N1CCCCN2[C@H](CO)[C@@H](c3ccc(-c4ccc5c(c4)OCO5)cc3)[C@@H]2C1` [K5], under setting [1], the IC50 was found to be 2.5 µM.

`Cc1ccccc1S(=O)(=O)N1CCC(O)(c2ccc(-c3cccc(C)c3C)cc2)CC1` [J2]: the IC50 under setting [1] worked out at 2.5 µM.

For the compound `Cc1ccccc1S(=O)(=O)N1CCCCN2[C@H](CO)[C@@H](c3ccc(-c4cccc(F)c4)cc3)[C@@H]2C1` [B10], the Emax under setting [2] came out at 65%.

As for `Cc1c(Cl)cccc1-c1ccc([C@H]2C3CN(S(=O)(=O)c4ccccc4C(F)(F)F)C/C=C\CN3[C@@H]2CO)cc1` (stereo partly shown) [K22], under setting [1], the IC50 was 0.01 µM.

As to `COc1ccccc1-c1ccc([C@@H]2[C@@H](C#N)N(C(=O)CN(C)C)[C@H]2CO)cc1` [D6], the IC50 under setting [1] worked out at 5 µM. The Emax under setting [2] amounted to 70%.

Regarding `Cc1ccccc1S(=O)(=O)N1CCCCN2C(C1)[C@H](c1ccc(-c3ccccc3)cc1)[C@H]2CO` (stereo partly shown) [K7], under setting [2], the Emax amounted to 65%.

Regarding `Cc1cccc(-c2ccc([C@@H]3[C@@H](CO)N4CCCCN(S(=O)(=O)c5ccccc5C)C[C@@H]34)cc2)c1` [BRD-297], the IC50 under setting [1] came to 0.25 µM.

Regarding `Cc1ccccc1S(=O)(=O)N1CCCCN2C(C1)[C@H](c1ccc(-c3cnc(F)c(C)c3)cc1)[C@H]2CO` (stereo partly shown) [K26], the Emax under setting [2] stood at 100%.

For the compound `Cc1ccccc1-c1ccc([C@@H]2[C@H](CO)N3CCCCN(C(=O)Cc4ccccn4)C[C@@H]23)cc1` [compound 469], the Emax under setting [2] stood at 80%.

As for `Cc1cc(F)ccc1-c1ccc([C@@H]2[C@@H](CO)N3CCCCN(S(=O)(=O)c4ccccc4C)C[C@@H]23)cc1` [JP-39], under setting [1], the IC50 was 0.8 µM.

Consider `Cc1ccccc1S(=O)(=O)N1CCCCN2[C@H](CO)[C@@H](c3ccc(-c4ccc5c(c4)OCO5)cc3)[C@@H]2C1` [B4], for which the Emax under setting [2] stood at 100%.

As to `Cc1ccccc1S(=O)(=O)N1CCC(c2ccc(-c3cccc(C)c3C)cc2)CC1` [J6], the IC50 under setting [1] came to 0.3 µM.

In the case of `Cc1cccc(-c2ccc(C3CCN(C(=O)c4ccc5occc5c4)CC3)cc2)c1C` [A26], the IC50 under setting [1] was determined as 6 µM.

With `Cc1cc(C)cc(-c2ccc([C@@H]3[C@@H](CO)N4CCCCN(S(=O)(=O)c5ccccc5C)C[C@@H]34)cc2)c1` [B9], under setting [2], the Emax came to 72%.

As to `COC[C@@H]1[C@@H](c2ccc(-c3cccc(C)c3C)cc2)[C@@H]2CN(S(=O)(=O)c3ccnn3C(C)C)CCCCN12` [JP-S10-OMe], under setting [1], the IC50 is more than 0.2 µM.

`Cc1ccccc1-c1ccc([C@H]2[C@H]3CN(C(=O)NC4CCCC4)CC(=O)N3[C@H]2CO)cc1` [compound 612]: the Emax under setting [2] was determined as 50%.

Take `Cc1cccc(-c2ccc(C3CCN(C(=O)c4ccc5c(c4)C4(OC5=O)c5ccc(O)cc5Oc5cc(O)ccc54)CC3)cc2)c1C` [A40]: the IC50 under setting [1] turned out to be 12 µM.

In the case of `Cc1cccc(-c2ccc([C@H]3C4CN(S(=O)(=O)c5cccnc5C)C/C=C\CN4[C@@H]3CO)cc2)c1C` (stereo partly shown) [JP-S21], under setting [1], the IC50 amounted to 0.02 µM.

Take `Cc1cc(S(=O)(=O)N2CCCCN3[C@H](CO)[C@@H](c4ccc(-c5cccc(C)c5C)cc4)[C@@H]3C2)n(C)n1` [JP-S25]: the IC50 under setting [1] is 0.02 µM.

As for `Cc1ccccc1S(=O)(=O)N1CCCCN2C(C1)[C@H](c1ccc(-c3cccc(F)c3)cc1)[C@H]2CO` (stereo partly shown) [K11], under setting [2], the Emax amounted to 65%.

In the case of `Cc1ccccc1S(=O)(=O)N1CC=C(c2ccc(-c3cccc(C)c3C)cc2)CC1` [J7], the IC50 under setting [1] was more than 100 µM.

`Cc1cccc(-c2ccc([C@H]3C4CNC/C=C\CN4[C@@H]3CO)cc2)c1C` (stereo partly shown) [Int211]: the IC50 under setting [1] was more than 10 µM.

Turning to `COc1ccc(C)cc1-c1ccc([C@@H]2[C@@H](CO)N3CCCCN(S(=O)(=O)c4ccccc4C)C[C@@H]23)cc1` [K16], under setting [1], the IC50 is 0.8 µM.

Consider `Cc1ccccc1S(=O)(=O)N1CCCCN2[C@H](CO)[C@@H](c3ccc(-c4cccc(C)c4C)cc3)[C@@H]2C1` [B8], for which the IC50 (fluorogenic peptide, FIG. 12, read-out: IC50 for proteolysis) turned out to be 0.002 µM.

As for `Cc1cccc(-c2ccc(C3CCN(S(=O)(=O)c4ccc5[nH]c(=O)[nH]c5c4)CC3)cc2)c1C` [A15], under setting [1], the IC50 was found to be 4 µM.

With `Cc1cc(C)cc(-c2ccc([C@H]3C4CN(S(=O)(=O)c5ccccc5C)CCCCN4[C@@H]3CO)cc2)c1` (stereo partly shown) [K10], under setting [2], the Emax turned out to be 72%.

`Cc1ccccc1S(=O)(=O)N1CCCCN2[C@H](CF)[C@@H](c3ccc(-c4cccc(C)c4C)cc3)[C@@H]2C1` [K28]: the IC50 under setting [1] was found to be 0.05 µM.

For `Cc1cccc(-c2ccc([C@@H]3[C@@H](CO)N4CCCCN(S(=O)(=O)c5ccc(F)cc5C(F)(F)F)C[C@@H]34)cc2)c1C` [JP-S15], the half-inhibitory concentration (IC50) under setting [1] is 0.05 µM.

`Cc1ccccc1S(=O)(=O)N1CCCCN2[C@H](CO)[C@@H](c3ccc(-c4cccc(F)c4C(F)(F)F)cc3)[C@@H]2C1` [K23]: under setting [1], the IC50 was found to be 0.3 µM.

`OC[C@H]1[C@@H](c2ccc(C#Cc3ccccc3F)cc2)[C@@H]2CN(Cc3cncnc3)CCCCN12` [compound 683]: the IC50 under setting [1] stood at 7 µM. Further, the Emax under setting [2] was found to be 80%.

`Cc1c(F)ccc(-c2ccc([C@@H]3[C@@H](CO)N4CCCCN(S(=O)(=O)c5cnc(C)n5C)C[C@@H]34)cc2)c1C` [JP-42]: the 50% inhibitory concentration (IC50) under setting [1] was 0.008 µM.

For `Cc1cccc(-c2ccc(N3CCN(C(=O)C4CCCC4)CC3)cc2)c1C` [J10], the half-maximal inhibitory concentration (IC50) under setting [1] was determined as 2.5 µM.

Regarding `Cc1cccc(-c2ccc([C@H]3C4CN(S(=O)(=O)c5cnc(C)n5C)C/C=C\CN4[C@@H]3CO)cc2)c1C` (stereo partly shown) [JP-S18], the IC50 under setting [1] stood at 0.002 µM.

Consider `Cc1cccc(-c2ccc(C3CCN(S(=O)(=O)c4cccc5c(N(C)C)cccc45)CC3)cc2)c1C` [A11], for which the IC50 under setting [1] was determined as 10 µM.

Regarding `Cc1ccccc1S(=O)(=O)N1CCCCN2[C@H](CO)[C@@H](c3ccc(-c4cccc(F)c4F)cc3)[C@@H]2C1` [B14], under setting [2], the Emax amounted to 90%.

For `Cc1cc2c(cc1S(=O)(=O)N1CCCCN3[C@H](CO)[C@@H](c4ccc(-c5cccc(C)c5C)cc4)[C@@H]3C1)OCC(=O)N2` [JP-S13], the concentration for half-maximal inhibition (IC50) under setting [1] stood at 0.1 µM.
